Results as given in patent US20260185025A1, “MICROPHYSIOLOGICAL PLATFORM WITH EMBEDDED ELECTRODES FOR 3D TISSUE CULTURE” (VALO HEALTH, INC., priority 2020, published 2026).

System: human engineered cardiac tissues (human iPSC derived cardiomyocytes co-cultured with human cardiac fibroblasts)
Test: Drug testing of engineered cardiac tissues in Biowire II 96-well plate under electrical pacing (contractile dynamics by wire displacement)
Type: cell-based
Details: day 19 tissues, n=2 (FIG. 7H)
Description: To generate cardiac tissues, human iPSC derived cardiomyocytes co-cultured with human cardiac fibroblasts were seeded with hydrogel in the 96-well plate device. Tissue compaction in the first seven days was observed (FIG. 7A, FIG. 7B), with dramatic change in the first two days followed by stabilization after day 3. Electrical field stimulation of cardiac tissues was initiated at day 7 and continued for the additional 12 days. […] Thapsigargin (50×10^-6 m), an inhibitor of sarcoplasmic reticulum function in cardiomyocytes, was added in the presence of electrical pacing (1.5 Hz), resulting in a prolonged tissue contraction and relaxation time (FIG. 7H). […] Predominantly ventricular cardiomyocytes (CMs) were derived from the hiPSC line BJ1D, using monolayer differentiation protocols as previously described. At day 21 of differentiation, cardiomyocytes were disassociated into single cells with previously established methods. Briefly, 1 mg mL^-1 of collagenase type II (Worthington, LS004205) in Hank's Balanced Salt Solution was added to the monolayer cardiomyocyte cultures and incubated overnight at room temperature. The disassociated cells were mixed with cardiac fibroblasts (Lonza, NHCF-V) in a 10:1 cell number ratio. The mixed cells were pelleted and remixed in collagen hydrogel at 5.5×10^7 cells mL^-1. The cell-gel mixture was seeded at […] per microwell. A droplet of media was placed on the wall of the well to keep the moisture until gelation was complete. The plate was incubated at 37° C. and 5% CO2 for 10 min followed by media addition. […] Average tissue width and width of the tissue (Tw), attachment site to the polymer sensor were measured using bright field images at the relaxed state. Passive displacement of polymer sensors was assessed in blue channel. […] The final readouts for the total and passive forces were interpolated according to the Tw and custom tip sizes. […] With built-in force sensor and electrodes, tissues were able to be assessed in situ in terms of their contractile dynamics and drug responses. […] The videos were analyzed using the custom MATLAB software. […]

[1] = 50×10^−6 m, electrical pacing 1.5 Hz, video 15 min after addition

Question: For `C/C=C(/C)C(=O)O[C@H]1C(C)=C2[C@H]([C@@H]1OC(=O)CCCCCCC)[C@@](C)(OC(C)=O)C[C@H](OC(=O)CCC)[C@@]1(O)[C@H]2OC(=O)[C@@]1(C)O` [Thapsigargin], which tissue contraction time [1] is on record?
Answer: prolonged

Question: What about the tissue relaxation time [1] of the same compound?
Answer: prolonged

Question: What about the “frequency of tissue beating” value (thapsigargin 50 µM, constant stimulation frequency 1.5 Hz) of the same compound?
Answer: decreased by half
